ChEMBL document CHEMBL3885861, “Open TG-GATES”

Species on record: Rattus norvegicus
Assay: Open TG-GATES - Regimen: Single
Type: toxicity, organism-based, Sprague-Dawley
Design: regimen Single, gender Male, age 6 weeks
Details: in vivo, po, 1000 mg/kg, route gavage, dose level High; for APTT / Bas / Eos / Fbg / Hb / Ht / Lym / MCH / MCHC / MCV / Mono / Neu / PT / Plat / RBC / Ret / WBC: tissue Blood; for KIDNEY_L / KIDNEY_R / KIDNEY_TOTAL: tissue Kidney; for LIVER: tissue Liver; for A/G / ALP / ALT / AST / BUN / CRE / Ca / Cl / DBIL / GLC / IP / K / LDH / Na / PL / RALB / TBIL / TC / TG / TP / gamma-GTP: tissue Plasma

SMILES: CN(C)[C@@H]1C(O)=C(C(N)=O)C(=O)[C@@]2(O)C(O)=C3C(=O)c4c(O)cccc4[C@@](C)(O)[C@H]3C[C@@H]12 [TETRACYCLINE]
- TERMINAL_BW (3 h): 185.9 g
- APTT (3 h): 15.7 s
- Bas (3 h): 0%
- Eos (3 h): 0.4%
- Fbg (3 h): 217.2 mg/dL
- Hb (3 h): 13.5 g/dL
- Ht (3 h): 40.5%
- Lym (3 h): 79.8%
- MCH (3 h): 22.1 pg
- MCHC (3 h): 33.3%
- MCV (3 h): 66.4 fL
- Mono (3 h): 6.4%
- Neu (3 h): 13.2%
- PT (3 h): 11.9 s
- Plat (3 h): 103.4 x10_4/uL
- RBC (3 h): 610 x10_4/ul
- Ret (3 h): 9.5%
- WBC (3 h): 108.1 x10_2/uL
- KIDNEY_L (3 h): 0.8 g
- KIDNEY_R (3 h): 0.8 g
- KIDNEY_TOTAL (3 h): 1.7 g
- LIVER (3 h): 8.5 g
- A/G (3 h): 2.2
- ALP (3 h): 770.2 IU/L
- ALT (3 h): 44 IU/L
- AST (3 h): 72.8 IU/L
- BUN (3 h): 15.6 mg/dL
- CRE (3 h): 0.5 mg/dL
- Ca (3 h): 11.1 mg/dL
- Cl (3 h): 105.8 meq/L
- DBIL (3 h): 0.03 mg/dL
- GLC (3 h): 184.8 mg/dL
- IP (3 h): 12 mg/dL
- K (3 h): 5 meq/L
- LDH (3 h): 142.4 IU/L
- Na (3 h): 138 meq/L
- PL (3 h): 132 mg/dL
- RALB (3 h): 3.8 g/dL
- TBIL (3 h): 0.6 mg/dL
- TC (3 h): 77.8 mg/dL
- TG (3 h): 36.8 mg/dL
- TP (3 h): 5.6 g/dL
- gamma-GTP (3 h): 1.8 IU/L
- TERMINAL_BW (6 h): 184.3 g
- APTT (6 h): 17.2 s
- Bas (6 h): 0%
- Eos (6 h): 0.4%
- Fbg (6 h): 193 mg/dL
- Hb (6 h): 13.4 g/dL
- Ht (6 h): 40.4%
- Lym (6 h): 79%
- MCH (6 h): 21.9 pg
- MCHC (6 h): 33.1%
- MCV (6 h): 66.1 fL
- Mono (6 h): 7.2%
- Neu (6 h): 13.4%
- PT (6 h): 12.2 s
- Plat (6 h): 101.1 x10_4/uL
- RBC (6 h): 612.4 x10_4/ul
- Ret (6 h): 10.1%
- WBC (6 h): 100.4 x10_2/uL
- KIDNEY_L (6 h): 0.9 g
- KIDNEY_R (6 h): 0.9 g
- KIDNEY_TOTAL (6 h): 1.8 g
- LIVER (6 h): 8.1 g
- A/G (6 h): 1.8
- ALP (6 h): 872.8 IU/L
- ALT (6 h): 39 IU/L
- AST (6 h): 74.2 IU/L
- BUN (6 h): 13.4 mg/dL
- CRE (6 h): 0.4 mg/dL
- Ca (6 h): 10.9 mg/dL
- Cl (6 h): 106.4 meq/L
- DBIL (6 h): 0.018 mg/dL
- GLC (6 h): 186.6 mg/dL
- IP (6 h): 11.9 mg/dL
- K (6 h): 5.4 meq/L
- LDH (6 h): 128.4 IU/L
- Na (6 h): 137.4 meq/L
- PL (6 h): 127 mg/dL
- RALB (6 h): 3.4 g/dL
- TBIL (6 h): 0.4 mg/dL
- TC (6 h): 71.2 mg/dL
- TG (6 h): 36.2 mg/dL
- TP (6 h): 5.2 g/dL
- gamma-GTP (6 h): 1.6 IU/L
- TERMINAL_BW (9 h): 180.6 g
- APTT (9 h): 16.8 s
- Bas (9 h): 0%
- Eos (9 h): 0.2%
- Fbg (9 h): 199.2 mg/dL
- Hb (9 h): 13.1 g/dL
- Ht (9 h): 40%
- Lym (9 h): 83.4%
- MCH (9 h): 21.5 pg
- MCHC (9 h): 32.8%
- MCV (9 h): 65.4 fL
- Mono (9 h): 5.8%
- Neu (9 h): 11%
- PT (9 h): 12.3 s
- Plat (9 h): 104 x10_4/uL
- RBC (9 h): 610.6 x10_4/ul
- Ret (9 h): 8.9%
- WBC (9 h): 66.5 x10_2/uL
- KIDNEY_L (9 h): 0.8 g
- KIDNEY_R (9 h): 0.8 g
- KIDNEY_TOTAL (9 h): 1.6 g
- LIVER (9 h): 7.7 g
- A/G (9 h): 2.2
- ALP (9 h): 769.6 IU/L
- ALT (9 h): 33.8 IU/L
- AST (9 h): 66.4 IU/L
- BUN (9 h): 12.8 mg/dL
- CRE (9 h): 0.4 mg/dL
- Ca (9 h): 11 mg/dL
- Cl (9 h): 107.4 meq/L
- DBIL (9 h): 0.044 mg/dL
- GLC (9 h): 192.4 mg/dL
- IP (9 h): 11.5 mg/dL
- K (9 h): 4.9 meq/L
- LDH (9 h): 136.2 IU/L
- Na (9 h): 139.8 meq/L
- PL (9 h): 128.8 mg/dL
- RALB (9 h): 3.7 g/dL
- TBIL (9 h): 0.4 mg/dL
- TC (9 h): 69.4 mg/dL
- TG (9 h): 25.6 mg/dL
- TP (9 h): 5.4 g/dL
- gamma-GTP (9 h): 1.2 IU/L
- TERMINAL_BW (24 h): 200.2 g
- APTT (24 h): 16.8 s
- Bas (24 h): 0%
- Eos (24 h): 0.6%
- Fbg (24 h): 208.8 mg/dL
- Hb (24 h): 13.4 g/dL
- Ht (24 h): 40.5%
- Lym (24 h): 84.2%
- MCH (24 h): 21.5 pg
- MCHC (24 h): 33%
- MCV (24 h): 65.1 fL
- Mono (24 h): 7%
- Neu (24 h): 8.2%
- PT (24 h): 11.9 s
- Plat (24 h): 105 x10_4/uL
- RBC (24 h): 621.8 x10_4/ul
- Ret (24 h): 8.9%
- WBC (24 h): 88.7 x10_2/uL
- KIDNEY_L (24 h): 0.9 g
- KIDNEY_R (24 h): 0.9 g
- KIDNEY_TOTAL (24 h): 1.9 g
- LIVER (24 h): 8.9 g
- A/G (24 h): 2.2
- ALP (24 h): 948 IU/L
- ALT (24 h): 44 IU/L
- AST (24 h): 77.2 IU/L
- BUN (24 h): 17.8 mg/dL
- CRE (24 h): 0.5 mg/dL
- Ca (24 h): 11.2 mg/dL
- Cl (24 h): 105.6 meq/L
- DBIL (24 h): 0.006 mg/dL
- GLC (24 h): 180.4 mg/dL
- IP (24 h): 9.8 mg/dL
- K (24 h): 5 meq/L
- LDH (24 h): 147 IU/L
- Na (24 h): 141.6 meq/L
- PL (24 h): 142.6 mg/dL
- RALB (24 h): 3.8 g/dL
- TBIL (24 h): 0.3 mg/dL
- TC (24 h): 74 mg/dL
- TG (24 h): 50.2 mg/dL
- TP (24 h): 5.6 g/dL
- gamma-GTP (24 h): 1 IU/L
